Assays:
[1] = test system: human PMNs stimulated by IL-8; experiment: Chemotaxis of human PMNs stimulated by IL-8 (48-well microchamber); type: cell-based; conditions: for activity on chemotaxis induced by IL-8, in words: Tables 1 and 2; for % inhibition of leucocyte chemotaxis: Table 3, diastereoisomers of ibuprophenoyl-alanine
Procedure: For in vitro evaluation of the compounds of the invention, polymorphonucleated leucocytes were used (hereinafter referred to as PMNs) isolated from heparinized human blood, taken from consenting healthy adults, by means of sedimentation on dextrane; the mononucleated cells were removed by means of Ficoll/Hypaque, whilst the red blood cells were eliminated by treatment with hypotonic solutions. The cell vitality of the PMNs was calculated by exclusion with Tripan blue, whilst the percentage of PMNs on the cytocentrifugate was estimated after staining with Diff Quinck., in accordance with the procedure described by W. J. Ming et al., J. Immunol., 138, 1469, 1987. In each of the experiments, which will be described in details below, the pre-incubations were carried out at a temperature of 37° C., observing incubation times of 10 minutes with the compounds under examination.
In the chemotaxis experiments and in those aimed at measuring the cytosol levels of the Ca^++ ion, recombinant human interleukin-8 (rhIL-8, Pepro Tech) was used; the lyophilized protein was dissolved in HBSS (Hank's balanced salts solution) at the concentration of 100 mcg/mL, and then diluted down to a concentration of 10 ng/mL in the chemotaxis experiments, to that a concentration of 25-50 ng/mL in the evaluation of the intracellular modifications of Ca^2+ (i.e. [Ca^2+]i) and to that a concentration of 400 ng/ml in the evaluation of tyrosine kinase activation.
During the chemotaxis assay (according to W. Falket et al., J. Immunol. Methods, 33, 239, 1980) PVP-free filters were used having a porosity of 5 mcm and microchambers made of plexiglas suitable for carrying out the replication.
The compounds being studied were added at one and the same concentration in the top-level wells that contained the suspension of PMNs, and in the wells of the bottom level that contained the vehicle to which IL-8 (or, if so desired, another stimulating agent) was added or otherwise.

TNF-α [2] = conditions: in the presence of LPSs and of S-ketoprofen 10^−5 M; LPSs alone 10±5 ng/mL; cited from earlier work
PGE2 = PGE2 synthesis in murine macrophages stimulated with lipopolysaccharides; type: cell-based; conditions: after stimulation with LPSs at 1 μg/mL
TNF-α [3] = experiment: TNF-α production in murine macrophages stimulated by LPS or H2O2; type: cell-based; conditions: stimulated in murine macrophages by H2O2 and by liposaccharides
[4] = Table 2, compounds 10^−8 M, IL-8 10 ng/mL
[5] = Table 1, compound conc. 10^−8 M, IL-8 10 ng/mL

Compound	% inhibition of chemotaxis of human PMNs stimulated by IL-8 (10 ng/mL) [1, 4] [%]	activity on chemotaxis induced by IL-8, in words [1]	also measured
CC(C)Cc1ccc([C@@H](C)C(=O)Nc2ccncc2)cc1 [Compound 12]	61 ± 8	good activity	
C[C@H](C(=O)O)c1cccc(C(=O)c2ccccc2)c1 [S-ketoprofen]			TNF-α in the incubation medium (TNF-α [2]): 39 ± 5 ng/mL
Cc1ccnc(NC(=O)[C@H](C)c2cccc(C(=O)c3ccccc3)c2)c1 [R(−)-2-[(5′-benzoyl)phenyl]-N-(4″methyl-2″-pyridyl)propionamide, reference compound]			% inhibition of chemotaxis of human PMNs stimulated by IL-8 (10 ng/mL) ([1]; Table 4, IL-8 10 ng/mL): −15 ± 25%
Cc1ccnc(NC(=O)[C@@H](C)c2ccc(CC(C)C)cc2)c1 [S(+)-2-[(4′-isobutyl)phenyl]-N-(4″-methyl-2″-pyridyl)propionamide, reference compound]			% inhibition of chemotaxis of human PMNs stimulated by IL-8 (10 ng/mL) ([1]; Table 4, IL-8 10 ng/mL): −3 ± 5%
CC(C)Cc1ccc([C@@H](C)C(=O)Nc2ccccc2)cc1 [Compound 9, R(−)-2-(4′-isobutyl)phenyl-N-phenyl propionamide]	9 ± 10	poor activity	
CC(C)Cc1ccc([C@@H](C)C(=O)N[C@@H](CO)C(=O)O)cc1 [Compound 7]	12 ± 4	decrease in the biological activity	
CC(C)Cc1ccc([C@@H](C)C(=O)N[C@@H](C)C(=O)O)cc1 [Compound 5]	65 ± 9	marked “pro-kinetic” paradox effect	inhibition of chemotaxis induced by IL-8, dose dependence ([1]; IL-8 10 ng/mL, concentration range from 10^−8 to 10^−10 M): inhibits, in a dose-dependent way; % inhibition of leucocyte chemotaxis [1]: 65 ± 9%
CC(C)Cc1ccc([C@@H](C)C(=O)N[C@H](C)C(=O)O)cc1 [Compound 6, (R,R′)-2-[(4′-isobutyl)phenyl]-N-(2″-carboxyethyl)propionamide]	−17 ± 6	inhibitory effect on chemotaxis	% inhibition of leucocyte chemotaxis [1]: −17 ± 6%
CC(C)Cc1ccc([C@H](C)C(=O)N[C@@H](C)C(=O)O)cc1 [S,L, reference compound]			% inhibition of leucocyte chemotaxis [1]: 4 ± 13%
CC(C)Cc1ccc([C@@H](C)C(=O)NCCOCCO)cc1 [Compound 8, R(−)-2-[(4′-isobutyl)phenyl]-N-(2″-hydroxyethoxyethyl)propionamide]	40 ± 4	restored	
CC(C)Cc1ccc([C@@H](C)C(=O)Nc2cccnc2)cc1 [Compound 11, R(−)-2-[(4′-isobutyl)phenyl]-N-(3″-pyridyl)propionamide]	11 ± 10	poor activity	
CC(C)Cc1ccc([C@H](C)C(=O)N[C@H](C)C(=O)O)cc1 [S,D, reference compound]			% inhibition of leucocyte chemotaxis [1]: 4 ± 19%
CNC(=O)[C@H](C)c1ccc(CC(C)C)cc1 [Compound 2, R(−)-2-(4′-isobutyl)phenyl-N-methyl propionamide]	25 ± 9		synthesis of PGE2 in the macrophages (PGE2): do not inhibit; production of TNF-α (TNF-α [3]): down-regulate the production of TNF-α; % inhibition of leucocyte chemotaxis stimulated by IL-8 (10 ng/mL) ([1]; concentration of 10^−8 M): 25±9%
CC(C)Cc1ccc([C@@H](C)C(=O)Nc2ccccn2)cc1 [Compound 10, R(−)-2-(4′-isobutyl)phenyl-N-(2′-pyridyl)propionamide]	36 ± 6	good activity	
Cc1ccnc(NC(=O)[C@@H](C)c2cccc(C(=O)c3ccccc3)c2)c1 [S(+)-2-[(5′-benzoyl)phenyl]-N-(4″-methyl-2″-pyridyl)propionamide, reference compound]			% inhibition of chemotaxis of human PMNs stimulated by IL-8 (10 ng/mL) ([1]; Table 4, IL-8 10 ng/mL): −1 ± 10%
CC(C)Cc1ccc([C@@H](C)C(=O)NCC(=O)O)cc1 [Compound 4, R(−)-2-[(4′-isobutyl)phenyl]-N-carboxymethyl propionamide]	45 ± 8	inhibitory effect on chemotaxis	
Cc1ccnc(NC(=O)[C@H](C)c2ccc(CC(C)C)cc2)c1 [R(−)-2-[(4′-isobutyl)phenyl]-N-(4″-methyl-2″-pyridyl)propionamide, reference compound]			% inhibition of chemotaxis of human PMNs stimulated by IL-8 (10 ng/mL) ([1]; Table 4, IL-8 10 ng/mL): −12 ± 2%
CC(C)Cc1ccc([C@H](C)C(N)=O)cc1 [(S)-2-(4-isobutyl-phenyl)-propionamide, reference compound]		altogether absent	% inhibition of chemotaxis of human PMNs stimulated by IL-8 (10 ng/mL) [1, 5]: −2 ± 8%
CC(C)Cc1ccc([C@@H](C)C(N)=O)cc1 [Compound 1, (R)-2-(4-isobutyl-phenyl)-propionamide, reference compound]	57 ± 12	active	% inhibition of chemotaxis of human PMNs stimulated by IL-8 (10 ng/mL) [1, 5]: 57 ± 12%
CC(C)Cc1ccc([C@@H](C)C(=O)NCCO)cc1 [Compound 3, R(−)-2-(4′-isobutyl)phenyl-N-(2′-hydroxyethyl)propionamide]	20 ± 11	decrease in the biological activity	
